According to PMC3034713, “Targeting Vascular NADPH Oxidase 1 Blocks Tumor Angiogenesis through a PPARα Mediated Mechanism” (PLoS ONE, 2011):

How the values were obtained:
[1] = tested on: cNos; assay: Pharmacological profiling (Cerep), Table S1; type: biochemical
[2] = target: T1, NOX2 (Homo sapiens, UniProt P04839); assay: NOX inhibition in cell free assay, membranes from NOX2 expressing PMN cells (Amplex Red ROS); type: biochemical
T1 construct: Membranes from NOX2 expressing PMN cells; endogenous in cells; host or cells: PMN cells
T1 sequence (P04839 2-570 limits assumed): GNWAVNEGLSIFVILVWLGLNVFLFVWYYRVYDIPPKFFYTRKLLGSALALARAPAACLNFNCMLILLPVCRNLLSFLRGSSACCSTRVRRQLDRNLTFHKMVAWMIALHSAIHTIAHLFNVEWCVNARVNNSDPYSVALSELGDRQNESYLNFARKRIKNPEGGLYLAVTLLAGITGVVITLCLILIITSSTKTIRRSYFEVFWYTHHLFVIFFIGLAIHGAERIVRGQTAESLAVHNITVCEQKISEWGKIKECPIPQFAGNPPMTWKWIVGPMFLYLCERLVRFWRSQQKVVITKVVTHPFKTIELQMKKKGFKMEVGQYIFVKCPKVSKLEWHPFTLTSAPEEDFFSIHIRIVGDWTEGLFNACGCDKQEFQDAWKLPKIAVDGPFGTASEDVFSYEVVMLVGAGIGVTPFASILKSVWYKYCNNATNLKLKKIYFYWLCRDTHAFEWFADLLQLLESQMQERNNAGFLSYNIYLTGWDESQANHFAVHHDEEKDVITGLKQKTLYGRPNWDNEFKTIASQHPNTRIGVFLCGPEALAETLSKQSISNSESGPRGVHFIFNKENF
T1 sequence (P13498 2-195 partner limits assumed): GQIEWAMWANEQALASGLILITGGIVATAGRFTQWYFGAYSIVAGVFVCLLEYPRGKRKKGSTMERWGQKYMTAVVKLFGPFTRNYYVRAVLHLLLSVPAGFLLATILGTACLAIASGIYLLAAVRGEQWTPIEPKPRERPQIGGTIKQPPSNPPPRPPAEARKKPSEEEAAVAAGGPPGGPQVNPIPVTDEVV
Procedure: (§1) Membranes from NOX2 expressing PMN cells or from cells overexpressing NOX1 or NOX4 were prepared as previously described. After resuspension in sonication buffer (11% sucrose, 120 mM NaCl, 1 mM EGTA in PBS, pH 7.4 for NOX4-expressing cells) or in relax buffer (10 mM Pipes, 3 mM NaCl, 3.5 mM MgCl2, 0.1 M KCl, pH 7.4), cells were broken by sonication and centrifuged (200 g, 10 min). The supernatant was loaded onto a 17/40% (w/v) discontinuous sucrose gradient and centrifuged (150,000 g for 30 min). Membrane fractions were collected and stored at −80°C. ROS production measurements of membranes expressing different NOX subunits was determined as previously described using the Amplex Red method (Invitrogen).

[3] = target: xanthine oxidase (Homo sapiens, UniProt P47989); assay: Pharmacological profiling (Cerep), Table S1
Sequence of xanthine oxidase (P47989 whole entry, species assumed): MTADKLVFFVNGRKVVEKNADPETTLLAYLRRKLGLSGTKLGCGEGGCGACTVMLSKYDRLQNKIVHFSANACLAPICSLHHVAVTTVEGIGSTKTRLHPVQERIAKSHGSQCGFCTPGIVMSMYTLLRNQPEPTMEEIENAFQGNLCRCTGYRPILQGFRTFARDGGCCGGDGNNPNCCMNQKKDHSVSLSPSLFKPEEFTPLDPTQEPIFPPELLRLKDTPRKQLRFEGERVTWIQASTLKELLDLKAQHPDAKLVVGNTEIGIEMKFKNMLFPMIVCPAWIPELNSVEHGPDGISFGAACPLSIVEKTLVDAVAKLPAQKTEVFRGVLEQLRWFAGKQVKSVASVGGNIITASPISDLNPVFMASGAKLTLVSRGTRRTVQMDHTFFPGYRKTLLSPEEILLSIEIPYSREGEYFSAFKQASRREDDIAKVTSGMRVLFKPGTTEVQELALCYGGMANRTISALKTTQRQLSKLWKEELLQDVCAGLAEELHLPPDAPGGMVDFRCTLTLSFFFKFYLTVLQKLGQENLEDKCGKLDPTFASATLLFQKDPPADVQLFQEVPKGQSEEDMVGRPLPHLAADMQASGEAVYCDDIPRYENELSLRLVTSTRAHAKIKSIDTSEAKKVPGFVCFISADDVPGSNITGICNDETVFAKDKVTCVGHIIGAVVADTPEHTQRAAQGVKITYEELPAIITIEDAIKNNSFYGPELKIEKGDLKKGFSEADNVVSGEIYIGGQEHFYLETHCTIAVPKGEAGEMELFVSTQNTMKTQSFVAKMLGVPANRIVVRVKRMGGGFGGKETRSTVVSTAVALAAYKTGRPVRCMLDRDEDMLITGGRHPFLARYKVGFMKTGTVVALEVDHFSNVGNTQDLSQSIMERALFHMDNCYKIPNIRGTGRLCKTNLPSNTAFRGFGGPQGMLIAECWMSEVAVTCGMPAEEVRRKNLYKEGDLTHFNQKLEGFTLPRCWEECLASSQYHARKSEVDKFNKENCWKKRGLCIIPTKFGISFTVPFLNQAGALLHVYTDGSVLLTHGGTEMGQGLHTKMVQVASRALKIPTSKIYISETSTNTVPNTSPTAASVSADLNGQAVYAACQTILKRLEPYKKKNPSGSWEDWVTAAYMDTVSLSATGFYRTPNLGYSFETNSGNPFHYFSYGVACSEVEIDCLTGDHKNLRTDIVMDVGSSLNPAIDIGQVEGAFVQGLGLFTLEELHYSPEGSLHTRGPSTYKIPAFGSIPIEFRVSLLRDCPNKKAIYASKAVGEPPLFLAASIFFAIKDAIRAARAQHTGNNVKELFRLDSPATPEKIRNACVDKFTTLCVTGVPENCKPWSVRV

[4] = tested on: Heart, Kidney, Liver and Lung of mice; conditions: mouse, in vivo
Procedure: Supplementary file pone.0014665.s009.tif: Figure S8 Non toxic effect GKT 136901 on mice organs. Heart (a), Kidney (b), Liver (c) and Lung (d) of mice treated orally with vehicle or with vehicle plus GKT136901 inhibitor at 40 mg/kg per day during 8 days, stained by Hematoxilin/Eosin. Scale bars represent 100 μm on the full picture and 20 μm on the zoom. Images were acquired with a 20x/0.8 numeric aperture and analyzed using Mirax (Carl Zeiss). (8.38 MB TIF) Click here for additional data file.

[5] = tested on: LLC1; assay: Tumor cell apoptosis (AnnexinV/PI staining); type: cell-based; conditions: 10 μM, 24h
Procedure: (§2) Supplementary file pone.0014665.s008.tif: Figure S7 Effect of GKT 136901 on tumor cells. a. LLC1 and B16F0 cell proliferation was measured by EdU incorporation and propidium iodide staining of DNA content, 24h after incubation with 10 μM of GKT136901. b. LLC1 apoptosis was measured by AnnexinV/PI staining after 24h of incubation with 10 μM of GKT136901. c. ROS levels produced by LLC1 are inhibited by GKT136901. ROS production was quantified by DHE substrate 1h after incubation with 10 μM of the inhibitor. *** p<0.001 (student t-test). (6.11 MB TIF) Click here for additional data file.

[6] = tested on: B16F0 tumors; assay: Tumor growth assay, B16F0 injected subcutaneously; type: in vivo, mice; conditions: 40 mg/kg/day oral for 8 days
Procedure: 5. 10^5 of LLC1 or B16F0 were injected subcutaneously on the back of mice. Mice were treated with NOX inhibitor, GKT136901 or vehicle (Carboxymethyl-cellulose, CMC) at 40 mg/kg everyday per os or i.p with anti-VEGFR2 antibody (DC101) at 0.8 mg every 2 days. When the control tumor reached approximately 1 cm in length, mice were sacrificed and the tumor excised, weighed and frozen. Frozen sections of tumors were stained with anti-PECAM-1 antibody (rat monoclonal, [74]).

[7] = target: T2, NOX4 (Homo sapiens, UniProt Q9NPH5); assay: NOX inhibition in cell free assay, membranes from cells overexpressing NOX4 (Amplex Red ROS); type: biochemical; conditions: Figure S2
T2 construct: expressed in transfected cells
T2 sequence (Q9NPH5 whole entry, species assumed, one chain of several): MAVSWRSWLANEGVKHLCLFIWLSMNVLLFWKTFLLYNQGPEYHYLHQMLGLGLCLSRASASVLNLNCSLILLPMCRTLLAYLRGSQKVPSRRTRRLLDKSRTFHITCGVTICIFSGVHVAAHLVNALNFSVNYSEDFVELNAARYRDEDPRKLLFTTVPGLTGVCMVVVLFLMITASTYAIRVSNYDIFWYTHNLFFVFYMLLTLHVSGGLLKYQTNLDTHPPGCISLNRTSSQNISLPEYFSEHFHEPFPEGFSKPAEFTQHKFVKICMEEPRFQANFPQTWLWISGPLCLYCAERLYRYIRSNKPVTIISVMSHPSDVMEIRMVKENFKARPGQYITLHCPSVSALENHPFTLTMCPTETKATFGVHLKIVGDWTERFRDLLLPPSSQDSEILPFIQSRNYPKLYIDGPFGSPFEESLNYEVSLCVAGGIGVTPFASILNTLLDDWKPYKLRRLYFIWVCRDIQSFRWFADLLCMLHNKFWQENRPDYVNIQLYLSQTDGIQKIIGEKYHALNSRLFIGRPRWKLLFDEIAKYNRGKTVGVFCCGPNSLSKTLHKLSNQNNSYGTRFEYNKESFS
Procedure: as §1

[8] = target: 12-Lipoxygenase (Homo sapiens, UniProt P18054); assay: Pharmacological profiling (Cerep), Table S1
Sequence of 12-Lipoxygenase (P18054 whole entry): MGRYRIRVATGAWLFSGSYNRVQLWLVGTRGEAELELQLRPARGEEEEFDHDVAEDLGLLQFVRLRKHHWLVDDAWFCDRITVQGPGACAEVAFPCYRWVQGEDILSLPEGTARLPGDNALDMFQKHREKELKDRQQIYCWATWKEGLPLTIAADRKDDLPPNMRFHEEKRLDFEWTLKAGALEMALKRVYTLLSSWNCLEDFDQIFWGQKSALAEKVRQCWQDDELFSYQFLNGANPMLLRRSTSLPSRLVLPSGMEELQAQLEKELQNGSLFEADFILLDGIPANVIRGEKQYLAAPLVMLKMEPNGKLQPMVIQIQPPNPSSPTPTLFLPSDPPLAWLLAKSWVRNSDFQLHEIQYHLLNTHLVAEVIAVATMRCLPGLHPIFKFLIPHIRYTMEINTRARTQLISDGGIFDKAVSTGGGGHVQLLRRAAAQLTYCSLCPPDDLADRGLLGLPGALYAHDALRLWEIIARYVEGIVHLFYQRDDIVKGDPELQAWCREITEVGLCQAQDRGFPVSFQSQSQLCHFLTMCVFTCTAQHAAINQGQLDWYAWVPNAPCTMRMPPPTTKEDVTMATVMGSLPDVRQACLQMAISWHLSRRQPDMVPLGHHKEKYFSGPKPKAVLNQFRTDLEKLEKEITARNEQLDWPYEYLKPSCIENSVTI

[9] = target: iNoS (Homo sapiens, UniProt P35228); assay: Pharmacological profiling (Cerep), Table S1
[10] = tested on: LLC1 tumors; assay: Tumor growth assay, LLC1 injected subcutaneously; type: in vivo, mice; conditions: for tumor vascularization (PECAM-1), vehicle = 100%: 40 mg/kg/day oral for 8 days
Procedure: 5. 10^5 of LLC1 or B16F0 were injected subcutaneously on the back of mice. […] Frozen sections of tumors were stained with anti-PECAM-1 antibody (rat monoclonal, [74]).

[11] = tested on: murine and human endothelial cells (MLEC, HUVEC, mouse endothelioma); assay: ROS measurement with DHE in endothelial cells stimulated with VEGF or bFGF; type: cell-based; conditions: 10 µM
Procedure: Endothelial cells were seeded on glass slides and stained with dihydroethidium (DHE). Images were captured with an inverted microscope and analyzed with Metafluor imaging software (MDS Analytical Technologies). Quantification was performed by measuring the fluorescence intensity of over minimum 50 endothelial cells per slide.

[12] = tested on: PI3K a, b, d, g; assay: Pharmacological profiling (Cerep), Table S1
[13] = target: eNos (Homo sapiens, UniProt P29474); assay: Pharmacological profiling (Cerep), Table S1
[14] = tested on: LLC1 and B16F0 cells; assay: Tumor cell proliferation (EdU incorporation, propidium iodide); type: cell-based; conditions: 10 μM, 24h
Procedure: as §2

SMILES: Cc1c2c(=O)n(-c3ccccc3Cl)[nH]c2cc(=O)n1Cc1ccccn1 [GKT136901]
- % Inhibition at 10 µM [1]: 0%
- potency on NOX2 relative to NOX1 and NOX4 [2]: ten-fold lower
- extent of inhibition of oxidase activity of NOX2 ([2]; Figure S2): only a partial effect
- Ki ([2]; cell-free, membranes from NOX2 expressing PMN cells): 1530 ± 90 nM
- % Inhibition at 10 µM [3]: 5%
- toxic effect on mice (organ histology) [4]: no toxic effect
- tumor cell apoptosis in vitro [5]: did not interfere
- tumor vascularization (PECAM-1), vehicle = 100% ([6]; B16F0 in PPARα deficient mice): 98% ±24
- tumor vascularization (PECAM-1), vehicle = 100% ([6]; B16F0 in WT mice): 64% ±14
- extent of inhibition of oxidase activity of NOX4 [7]: completely inhibits
- % Inhibition at 10 µM [8]: 2%
- % Inhibition at 10 µM [9]: 0%
- reduction of vascular area (PECAM-1) compared to vehicle ([10]; LLC1, 40 mg/kg daily oral from one day after injection): 59% ±9.3
- tumor size smaller compared to vehicle-treated mice ([10]; LLC1, 40 mg/kg daily oral from one day after injection, one week of treatment): 34% ±5.8
- tumor vascularization (PECAM-1), vehicle = 100% ([10]; LLC1 in PPARα deficient mice): 129% ±23
- tumor vascularization (PECAM-1), vehicle = 100% ([10]; LLC1 in WT mice): 65% ±13
- reduction of tumor vascularization (PECAM-1), therapeutic treatment ([10]; established LLC1 tumors, start 8 days after implantation, day 12): 36% ±16
- delay of tumor progression (tumor volume), therapeutic treatment ([10]; established LLC1 tumors, start 8 days after implantation, GKT136901 40 mg/kg per os, DC101 0.8 mg i.p. every 2 days): 35% ±5.7
- ROS induction after VEGF or bFGF stimulation [11]: did not induce ROS
- % Inhibition at 10 µM [12]: 0%
- % Inhibition at 10 µM [13]: 6%
- tumor cell proliferation in vitro [14]: did not interfere
